In ChEMBL document CHEMBL5291721, “A preclinical secondary pharmacology resource illuminates target-adverse drug reaction associations of marketed drugs” (Nat Commun, 2023):

How the values were obtained:
[1] = molecular target: T1, Gastrin/cholecystokinin type B receptor (Homo sapiens, UniProt P32239)
T1 sequence (P32239 whole entry): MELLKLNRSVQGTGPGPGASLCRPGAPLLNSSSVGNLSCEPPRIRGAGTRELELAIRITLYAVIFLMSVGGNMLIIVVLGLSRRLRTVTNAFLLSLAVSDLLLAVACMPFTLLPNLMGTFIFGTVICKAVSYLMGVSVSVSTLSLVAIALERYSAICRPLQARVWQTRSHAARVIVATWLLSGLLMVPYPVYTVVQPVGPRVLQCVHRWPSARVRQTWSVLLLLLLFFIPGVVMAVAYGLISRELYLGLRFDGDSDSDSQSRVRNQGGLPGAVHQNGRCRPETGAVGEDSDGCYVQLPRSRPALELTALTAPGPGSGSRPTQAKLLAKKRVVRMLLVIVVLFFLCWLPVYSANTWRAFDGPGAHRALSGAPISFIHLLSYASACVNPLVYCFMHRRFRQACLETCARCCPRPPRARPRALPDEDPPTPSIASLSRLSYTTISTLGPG

[2] = molecular target: Voltage-dependent L-type calcium channel subunit alpha-1C (Rattus norvegicus, UniProt P22002); format: functional
Adenosine receptor A1 = molecular target: T2, Adenosine receptor A1 (Homo sapiens, UniProt P30542)
T2 sequence (P30542 whole entry): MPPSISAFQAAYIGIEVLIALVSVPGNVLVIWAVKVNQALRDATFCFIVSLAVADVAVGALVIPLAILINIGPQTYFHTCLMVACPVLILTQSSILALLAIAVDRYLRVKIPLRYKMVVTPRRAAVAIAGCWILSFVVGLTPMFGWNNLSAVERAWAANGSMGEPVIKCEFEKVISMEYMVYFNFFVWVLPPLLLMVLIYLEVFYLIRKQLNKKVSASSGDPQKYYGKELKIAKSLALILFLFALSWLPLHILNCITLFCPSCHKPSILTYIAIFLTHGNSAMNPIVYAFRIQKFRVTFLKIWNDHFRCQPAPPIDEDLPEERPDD

Progesterone receptor = molecular target: T3, Progesterone receptor (Homo sapiens, UniProt P06401); format: functional
T3 sequence (P06401 whole entry): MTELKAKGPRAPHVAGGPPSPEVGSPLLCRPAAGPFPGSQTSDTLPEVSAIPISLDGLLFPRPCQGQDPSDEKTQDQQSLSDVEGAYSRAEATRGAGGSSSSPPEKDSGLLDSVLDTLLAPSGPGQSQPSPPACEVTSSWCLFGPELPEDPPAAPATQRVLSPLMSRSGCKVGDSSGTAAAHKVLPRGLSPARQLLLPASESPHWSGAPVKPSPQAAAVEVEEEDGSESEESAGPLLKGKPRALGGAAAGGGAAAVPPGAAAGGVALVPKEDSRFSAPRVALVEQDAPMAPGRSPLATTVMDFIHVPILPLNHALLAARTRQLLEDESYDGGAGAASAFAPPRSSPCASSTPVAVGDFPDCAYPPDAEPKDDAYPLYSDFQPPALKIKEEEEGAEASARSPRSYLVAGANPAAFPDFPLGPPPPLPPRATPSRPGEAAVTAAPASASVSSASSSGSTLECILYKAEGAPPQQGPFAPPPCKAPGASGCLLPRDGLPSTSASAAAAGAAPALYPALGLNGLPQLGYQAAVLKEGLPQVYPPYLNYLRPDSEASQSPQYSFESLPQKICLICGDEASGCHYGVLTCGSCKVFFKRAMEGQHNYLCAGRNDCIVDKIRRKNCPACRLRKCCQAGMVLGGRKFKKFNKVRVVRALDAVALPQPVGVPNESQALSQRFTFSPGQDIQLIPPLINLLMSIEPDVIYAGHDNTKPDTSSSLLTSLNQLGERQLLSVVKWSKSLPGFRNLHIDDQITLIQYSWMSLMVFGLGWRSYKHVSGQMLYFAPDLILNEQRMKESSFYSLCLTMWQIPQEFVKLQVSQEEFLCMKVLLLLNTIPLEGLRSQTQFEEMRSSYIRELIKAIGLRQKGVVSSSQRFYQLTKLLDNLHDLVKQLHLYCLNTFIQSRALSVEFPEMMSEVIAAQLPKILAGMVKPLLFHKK

[3] = molecular target: T4, Alpha-1A adrenergic receptor (Homo sapiens, UniProt P35348); format: functional, cell-based
T4 sequence (P35348 whole entry): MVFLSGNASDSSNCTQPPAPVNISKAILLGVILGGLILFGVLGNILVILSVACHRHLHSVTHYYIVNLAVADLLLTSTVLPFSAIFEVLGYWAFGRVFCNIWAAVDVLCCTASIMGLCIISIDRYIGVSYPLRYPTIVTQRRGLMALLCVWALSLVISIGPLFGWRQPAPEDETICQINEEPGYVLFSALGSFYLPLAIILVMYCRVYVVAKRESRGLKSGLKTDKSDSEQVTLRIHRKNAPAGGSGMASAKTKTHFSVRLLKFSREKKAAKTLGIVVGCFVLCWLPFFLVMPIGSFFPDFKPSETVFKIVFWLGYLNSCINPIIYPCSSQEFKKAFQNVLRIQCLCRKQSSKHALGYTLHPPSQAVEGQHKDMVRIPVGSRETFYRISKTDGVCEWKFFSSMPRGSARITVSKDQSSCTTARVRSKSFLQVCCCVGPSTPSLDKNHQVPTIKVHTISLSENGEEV

[4] = molecular target: Glutamate receptor ionotropic, NMDA 1 (Rattus norvegicus, UniProt P35439)
Also: assay procedure not described here.

Voltage-dependent L-type calcium channel subunit alpha-1C, sequence (P22002 whole entry): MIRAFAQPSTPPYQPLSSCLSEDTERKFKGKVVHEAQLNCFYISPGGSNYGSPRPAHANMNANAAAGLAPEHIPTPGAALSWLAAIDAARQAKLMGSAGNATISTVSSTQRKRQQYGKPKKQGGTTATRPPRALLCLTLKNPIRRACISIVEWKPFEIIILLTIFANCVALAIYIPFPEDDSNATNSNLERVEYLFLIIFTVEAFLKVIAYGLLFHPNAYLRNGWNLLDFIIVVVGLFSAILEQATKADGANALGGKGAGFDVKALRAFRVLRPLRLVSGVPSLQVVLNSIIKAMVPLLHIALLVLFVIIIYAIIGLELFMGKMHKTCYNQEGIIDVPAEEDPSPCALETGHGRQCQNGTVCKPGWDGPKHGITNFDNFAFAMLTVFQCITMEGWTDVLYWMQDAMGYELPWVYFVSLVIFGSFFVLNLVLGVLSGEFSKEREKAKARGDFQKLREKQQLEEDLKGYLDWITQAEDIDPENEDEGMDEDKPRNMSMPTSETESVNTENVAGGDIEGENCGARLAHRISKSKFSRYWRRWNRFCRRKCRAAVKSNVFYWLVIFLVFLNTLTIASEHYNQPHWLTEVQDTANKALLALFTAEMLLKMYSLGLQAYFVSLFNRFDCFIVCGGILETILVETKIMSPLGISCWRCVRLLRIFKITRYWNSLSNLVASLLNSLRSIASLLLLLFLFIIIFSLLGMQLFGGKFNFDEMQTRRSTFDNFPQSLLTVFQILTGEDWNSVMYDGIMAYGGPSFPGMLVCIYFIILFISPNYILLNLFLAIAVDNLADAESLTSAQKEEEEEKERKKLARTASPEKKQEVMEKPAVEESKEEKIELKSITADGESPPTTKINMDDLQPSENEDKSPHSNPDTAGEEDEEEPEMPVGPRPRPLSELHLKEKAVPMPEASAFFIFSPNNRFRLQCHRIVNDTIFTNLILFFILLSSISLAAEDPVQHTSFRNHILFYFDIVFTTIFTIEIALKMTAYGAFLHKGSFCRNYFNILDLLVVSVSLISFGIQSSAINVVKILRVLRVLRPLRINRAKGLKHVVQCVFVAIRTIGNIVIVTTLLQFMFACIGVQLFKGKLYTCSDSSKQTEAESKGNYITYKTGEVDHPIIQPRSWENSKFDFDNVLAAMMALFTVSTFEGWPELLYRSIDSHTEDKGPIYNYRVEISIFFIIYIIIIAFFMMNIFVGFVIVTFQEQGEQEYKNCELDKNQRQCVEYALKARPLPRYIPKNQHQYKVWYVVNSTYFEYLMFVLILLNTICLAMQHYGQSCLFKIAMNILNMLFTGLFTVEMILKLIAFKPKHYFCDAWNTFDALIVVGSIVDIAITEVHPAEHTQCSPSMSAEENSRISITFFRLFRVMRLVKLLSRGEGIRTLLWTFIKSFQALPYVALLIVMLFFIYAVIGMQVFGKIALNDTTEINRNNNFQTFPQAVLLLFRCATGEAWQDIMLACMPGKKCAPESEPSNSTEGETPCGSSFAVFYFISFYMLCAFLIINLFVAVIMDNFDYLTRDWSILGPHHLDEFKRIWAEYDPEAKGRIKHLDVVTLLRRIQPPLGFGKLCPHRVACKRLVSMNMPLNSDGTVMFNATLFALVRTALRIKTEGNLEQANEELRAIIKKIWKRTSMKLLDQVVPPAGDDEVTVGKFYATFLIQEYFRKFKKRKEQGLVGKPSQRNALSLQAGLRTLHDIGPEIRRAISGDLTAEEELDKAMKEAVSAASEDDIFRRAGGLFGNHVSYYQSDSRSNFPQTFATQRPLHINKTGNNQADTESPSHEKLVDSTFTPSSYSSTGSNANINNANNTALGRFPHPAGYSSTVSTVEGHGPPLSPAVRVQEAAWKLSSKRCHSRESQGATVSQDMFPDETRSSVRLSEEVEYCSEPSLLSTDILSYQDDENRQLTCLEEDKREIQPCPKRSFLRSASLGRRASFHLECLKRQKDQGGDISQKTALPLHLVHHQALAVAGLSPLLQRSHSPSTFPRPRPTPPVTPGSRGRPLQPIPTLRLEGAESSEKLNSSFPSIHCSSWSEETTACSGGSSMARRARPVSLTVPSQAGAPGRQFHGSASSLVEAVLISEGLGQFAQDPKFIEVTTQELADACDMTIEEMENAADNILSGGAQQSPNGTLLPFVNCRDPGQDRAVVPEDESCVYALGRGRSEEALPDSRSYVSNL

Row | SMILES | AC50 [1] [µM] | AC50 [2] [µM] | AC50 (Adenosine receptor A1) [µM] | AC50 (Progesterone receptor) [µM] | AC50 [3] [µM] | AC50 [4] [µM]
1 | N#Cc1ccccc1-c1cc(-c2ccccn2)cn(-c2ccccc2)c1=O | > 30 | > 30 | > 30 | > 30 | > 30 | > 30
2 | N=C(N)NCCCCCCC(=O)NC(O)C(=O)NCCCCNCCCN (stereo not given) | > 30 | > 30 | > 30 | > 30 | > 30 | > 30
3 | CC(=O)OCC(=O)[C@@]1(O)CC[C@H]2[C@@H]3CCC4=CC(=O)CC[C@]4(C)C3=CC[C@@]21C [ANECORTAVE ACETATE] |  | > 10 | > 10 | > 30 | > 30 | > 10
4 | O=C(CCCN1CCC(n2c(O)nc3ccccc32)CC1)c1ccc(F)cc1 [BENPERIDOL] | > 30 | > 30 | > 30 | > 30 | 0.0706 | > 30
5 | CCN(CC)C(=O)C1CN2CCc3cc(OC)c(OC)cc3C2CC1OC(C)=O (stereo not given) [BENZQUINAMIDE] | > 30 | > 10 | > 30 | > 30 | > 30 | > 30
6 | CCC(=O)OCC(=O)[C@@]1(OC(=O)CC)[C@@H](C)C[C@H]2[C@@H]3CCC4=CC(=O)C=C[C@]4(C)[C@@]3(F)[C@@H](O)C[C@@]21C [BETAMETHASONE DIPROPIONATE] | > 30 | > 30 | > 30 | 0.3 | > 30 | > 30
7 | COc1cc(OC)c(C(=O)CCCN2CCCC2)c(OC)c1 [BUFLOMEDIL] | > 30 | > 30 | > 30 | > 30 | > 30 | > 30
8 | CCOC(=O)NNc1ccc(N(CC)CC(C)O)nn1 (stereo not given) [CADRALAZINE] | > 30 | > 30 | > 30 | > 30 | > 30 | > 30
9 | CCCC(C)(COC(N)=O)COC(=O)NC(C)C (stereo not given) [CARISOPRODOL] | > 30 | > 10 | > 30 |  | > 30 | > 10
10 | CCCCCCNC(=O)n1cc(F)c(=O)[nH]c1=O [CARMOFUR] | > 30 | > 30 | > 30 | > 30 |  | > 30
11 | CC(C)(C)NCC(O)c1cc(Cl)c(N)c(Cl)c1 (stereo not given) [CLENBUTEROL] | > 30 | > 30 | > 30 | > 30 | > 30 | > 30
12 | CCC(C)(Oc1ccc(C2(c3ccc(OC(C)(CC)C(=O)O)cc3)CCCCC2)cc1)C(=O)O (stereo not given) [CLINOFIBRATE] | > 30 | > 30 | > 30 | > 30 | > 30 | > 30
13 | COc1cccc2c1C(=O)c1c(O)c3c(c(O)c1C2=O)C[C@@](O)(C(C)=O)C[C@@H]3O[C@H]1C[C@H](N)[C@H](O)[C@H](C)O1 [DAUNORUBICIN] | > 30 | > 30 | > 30 | 7.42 |  | > 30
14 | N[C@H](Cc1cc(I)c(Oc2cc(I)c(O)c(I)c2)c(I)c1)C(=O)O [DEXTROTHYROXINE] | > 30 | > 10 | > 30 |  | > 30 | > 10
15 | CCCCC[C@H](O)/C=C/[C@H]1[C@H](O)CC(=O)[C@@H]1C/C=C\CCCC(=O)O [DINOPROSTONE] | > 30 | > 30 | > 30 | > 30 | > 30 | > 30
16 | CC(C)c1cc2c(cc1S(=O)(=O)O)[C@@]1(C)CCC[C@@](C)(C(=O)O)[C@@H]1CC2 [ECABET] | > 30 | > 30 | > 30 | > 30 | > 30 | > 30
17 | COC(=O)N[C@@H](C)CNc1nccc(-c2cn(C(C)C)nc2-c2cc(Cl)cc(NS(C)(=O)=O)c2F)n1 [ENCORAFENIB] | 22.1 | > 30 | > 30 | > 30 |  | > 30
18 | Clc1ccc2c(c1)C(c1ccccc1)=NCc1nncn1-2 [ESTAZOLAM] | > 30 | > 10 | > 30 |  | > 30 | > 10
19 | CC(=O)OCC(CCn1cnc2cnc(N)nc21)COC(C)=O [FAMCICLOVIR] | > 30 | > 10 | > 30 |  | > 30 | > 10
20 | O=C(O)c1ccccc1Nc1cccc(C(F)(F)F)c1 [FLUFENAMIC ACID] | > 30 | > 10 | > 30 |  | > 30 | > 10
21 | COC1=C(OC)C(=O)C(CCCCCCCCCCO)=C(C)C1=O [IDEBENONE] | > 30 | > 10 | > 30 |  | > 30 | > 10
22 | CC(=O)Nc1c(I)c(C(=O)N[C@H]2C(O)O[C@H](CO)[C@@H](O)[C@@H]2O)c(I)c(N(C)C(C)=O)c1I (stereo not given in full) [METRIZAMIDE] |  | > 10 | > 10 | > 10 | > 30 | > 10
23 | O=C1Nc2ccc(Cl)cc2C(c2ccccc2)=NC1O (stereo not given) [OXAZEPAM] | > 30 | > 10 | > 30 |  | > 30 | > 10
24 | CC[N+]1(C)CCCC(OC(=O)C(O)(c2ccccc2)c2ccccc2)C1 (stereo not given) [PIPENZOLATE] | > 30 | > 30 | > 30 | > 30 |  | > 30
25 | NC(=O)CCC/N=C(\c1ccc(Cl)cc1)c1cc(F)ccc1O [PROGABIDE] |  | > 10 | > 10 | > 10 | > 30 | > 10
26 | CC(C)CC(N(C)C)C1(c2ccc(Cl)cc2)CCC1 (stereo not given) [SIBUTRAMINE] | > 30 | > 10 | > 30 |  | > 30 | > 10
27 | Cc1cccc(N(C)C(=S)Oc2ccc3ccccc3c2)c1 [TOLNAFTATE] |  | 25 | > 10 | > 30 | > 30 | > 10
28 | CN1[C@@H]2CC[C@H]1C[C@@H](OC(=O)c1c[nH]c3ccccc13)C2 [TROPISETRON] | > 30 | > 30 | > 30 |  | > 30 | 
29 | C=CC(N)CCC(=O)O (stereo not given) [VIGABATRIN] |  | > 10 | > 10 | > 10 | > 30 | > 10
